In patent publication US20240010680A1, “PEPTIDE DISINFECTANT FOR PREVENTING CORONAVIRUSES” (Xiamen University, priority 2021, published 2024):
Where no end group is shown, it is not given here.

Molecular target: hACE2 (Homo sapiens, UniProt Q9BYF1)
Experiment: Biacore T200 molecular binding (affinity analysis) of peptides on a CM5-hACE2 chip
Excerpt: Embodiment 1: Testing a Binding Capacity Between Peptide1 & Peptide2 and Derivatives Thereof and hACE2 Based on a Biacore Molecular Binding System (e.g., GE Biacore T200)
Apparatus: GE Biacore T200.
Materials and reagents: Series S Sensor Chip CM5 (GE Life100530), hACE2 purified protein, Peptide1 & Peptide2 and their derivatives (See Table 1), Amine Coupling Kit (GELife100050, Phosphate-buffered saline (PBS), glycine-hydrochloric acid buffer solution (pH 2.5)).
(1) Preparing a Capture Surface and a Binding Experiment
Materials: 1-(3-Dimethylaminopropyl)-3-ethylcarbodiimide hydrochloride (EDC), N-Hydroxysuccinimide (NHS), ethanolamine (an amine coupling kit), PBS, hACE2, Series S Sensor Chip CM5.
Specific Steps: • a. The GE Biacore T200 is started, the Series S Sensor Chip CM5 is embedded into the GE Biacore T200, the PBS is degassed to obtain a degassed PBS, and the degassed PBS is used throughout the experiment; • b. The NHS, the EDC, the ethanolamine, and the hACE2 (1 mg/mL) are placed on a feeding plate of the GE Biacore T200 according to volumes indicated by the GE Biacore T200 using Eppendorf (EP) tubes in sufficient quantities; • c. A sample is injected at a flow rate of 5 μL/min, an activation of the Series S Sensor Chip CM5, amine coupling of the hACE2, and saturating an activated carboxyl group that is uncoupled with the hACE2 using the ethanolamine are sequentially performed to obtain an RUs value of the hACE2, and the RUs value is 14826.0; • d. A mobile solution (the degassed PBS) is closed, a command window is closed, and a report is served to obtain a CM5-hACE2 chip;
(2) Affinity analysis of peptides with hACE from Table 1
Materials: the PBS, the CM5-hACE2 chip, the peptides in the Table 1, and the glycine-hydrochloric acid buffer solution (pH 2.5).
Specific Steps: • a. Preparing different dilutions as samples for testing: the peptides in Table 1 to be tested at a concentration of 3 mmol/L (mM) are dissolved and sequentially diluted into different dilutions of 100 μmol/L (μM), 60 μM, 30 μM, 10 μM, 3 μM, 1 μM, 0.3 μM, and 0 using the PBS to obtain the samples. Each of the different dilutions is ensured to have a volume of no less than 400 μL and separately packaged on EP tubes. The samples are placed on a test plate of the GE Biacore T200, and the test plate is stuck in a test slot; • b. […]

hACE2, sequence (Q9BYF1 18-805): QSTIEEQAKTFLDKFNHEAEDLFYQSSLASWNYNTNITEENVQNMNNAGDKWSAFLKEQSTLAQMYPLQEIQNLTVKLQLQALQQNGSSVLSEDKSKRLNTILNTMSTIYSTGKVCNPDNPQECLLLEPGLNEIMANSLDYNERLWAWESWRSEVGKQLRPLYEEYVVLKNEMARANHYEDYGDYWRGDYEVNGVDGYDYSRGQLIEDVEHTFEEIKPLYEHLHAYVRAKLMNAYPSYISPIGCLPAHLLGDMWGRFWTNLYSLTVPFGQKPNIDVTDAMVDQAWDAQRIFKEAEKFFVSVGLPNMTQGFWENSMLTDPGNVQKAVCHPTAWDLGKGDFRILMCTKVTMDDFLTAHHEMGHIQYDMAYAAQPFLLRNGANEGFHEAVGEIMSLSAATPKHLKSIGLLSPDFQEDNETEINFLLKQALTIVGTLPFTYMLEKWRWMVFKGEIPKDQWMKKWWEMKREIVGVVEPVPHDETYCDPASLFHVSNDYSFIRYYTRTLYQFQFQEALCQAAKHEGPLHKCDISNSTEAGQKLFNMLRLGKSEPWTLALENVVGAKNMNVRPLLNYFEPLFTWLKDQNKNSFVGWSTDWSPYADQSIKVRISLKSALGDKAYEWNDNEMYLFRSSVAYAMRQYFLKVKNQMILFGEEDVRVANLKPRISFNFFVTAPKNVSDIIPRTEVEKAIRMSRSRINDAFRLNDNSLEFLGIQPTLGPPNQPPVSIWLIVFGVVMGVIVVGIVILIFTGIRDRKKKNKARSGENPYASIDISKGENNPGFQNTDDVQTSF

Compared with YTYINK [Peptide22, YTYINK], YSYINK [Peptide2, YSYINK] is 1.6-fold higher in Kd: 58.4 µM for the first, 95 µM for the second.

YRYKYL [Peptide11, YRYKYL] and YKYRYL [Peptide1, YKYRYL] are within 1.5-fold of each other in Kd: 60.7 µM for the first, 50.6 µM for the second.
